The structures appear in SMILES notation. Where only a bound is given, the exact number is not on record here.

T1 sequence (P41594 21-1212): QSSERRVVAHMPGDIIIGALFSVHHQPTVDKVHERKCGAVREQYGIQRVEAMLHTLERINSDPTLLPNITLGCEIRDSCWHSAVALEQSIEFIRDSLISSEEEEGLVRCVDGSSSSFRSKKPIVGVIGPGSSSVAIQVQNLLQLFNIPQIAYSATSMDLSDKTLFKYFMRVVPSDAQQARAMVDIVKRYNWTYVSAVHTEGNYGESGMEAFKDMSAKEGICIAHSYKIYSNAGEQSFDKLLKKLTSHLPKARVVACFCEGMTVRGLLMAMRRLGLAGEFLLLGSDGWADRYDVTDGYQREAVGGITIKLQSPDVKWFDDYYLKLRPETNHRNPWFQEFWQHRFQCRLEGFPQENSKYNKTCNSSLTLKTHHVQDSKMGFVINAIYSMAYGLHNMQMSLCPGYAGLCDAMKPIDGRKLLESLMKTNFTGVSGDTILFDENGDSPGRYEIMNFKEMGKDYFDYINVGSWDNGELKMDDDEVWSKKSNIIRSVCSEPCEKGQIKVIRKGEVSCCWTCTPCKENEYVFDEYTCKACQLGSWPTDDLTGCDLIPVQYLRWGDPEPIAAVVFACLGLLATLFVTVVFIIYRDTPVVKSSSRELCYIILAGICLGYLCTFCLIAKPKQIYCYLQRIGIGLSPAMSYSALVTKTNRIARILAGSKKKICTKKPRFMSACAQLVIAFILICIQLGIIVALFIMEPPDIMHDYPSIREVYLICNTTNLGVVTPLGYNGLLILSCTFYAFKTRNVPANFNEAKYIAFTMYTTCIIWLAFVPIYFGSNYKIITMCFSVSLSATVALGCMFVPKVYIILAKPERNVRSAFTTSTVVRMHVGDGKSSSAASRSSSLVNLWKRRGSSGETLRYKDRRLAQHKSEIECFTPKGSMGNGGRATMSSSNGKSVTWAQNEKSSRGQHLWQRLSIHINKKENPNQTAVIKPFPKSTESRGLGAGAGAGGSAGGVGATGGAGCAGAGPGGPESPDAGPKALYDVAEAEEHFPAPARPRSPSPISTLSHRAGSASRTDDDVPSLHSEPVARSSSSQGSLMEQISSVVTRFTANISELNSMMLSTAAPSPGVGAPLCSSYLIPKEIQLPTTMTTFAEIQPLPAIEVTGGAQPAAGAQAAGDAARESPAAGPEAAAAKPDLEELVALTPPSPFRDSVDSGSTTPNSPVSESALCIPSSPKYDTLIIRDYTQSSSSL

One experiment addresses T1, human mGlu5 recombinant receptor (Homo sapiens, UniProt P41594).
T1 construct: expressed in transfected cells; host or cells: inducible CHO cell line stably expressing Aequorin (Euroscreen FAST); doxycycline-responsive promoter
Put plainly: mGluR5 calcium mobilization in inducible mGluR5 CHO cells (aequorin luminescence, antagonist mode). As to conditions: Table 2; antagonist activity against EC80 glutamate, inducible CHO cell line expressing human mGlu5 and Aequorin; read-out: IC50 (uM) Ca^++ flux. In kind it is cell-based. An excerpt: mGluR5 Calcium Mobilization in Inducible mGluR5 CHO Cells
To functionally measure mGluR5 calcium mobilization in response to agonists or antagonists, an inducible CHO cell line expressing the human mGlu5 recombinant receptor was used. This cell line also stably expressed Aequorin (Euroscreen FAST), a photoprotein that spontaneously couples with coelenterazine h when added exogenously in the cell media. The Aequorin-coelenterzine h complex undergoes a conformational change upon binding of calcium ions which results in the emission of blue light (wavelength 469 nm) that was measured using a Hamamatsu Functional Drug Screening System 6000.
mGluR5 expression was induced by a doxycycline responsive promoter by growing cells to mid-log phase for 18 hours in media without antibiotics and supplemented with doxycycline (600 ng/mL). Cells were detached from the plate by gentle flushing using PBS-EDTA (5 mM EDTA) and centrifuged for collection and resuspended in “assay buffer” (HBSS, 2.1 mM CaCl2, 2 ug/mL glutamate-pyruvate transaminase, 4 mM MEM sodium pyruvate, and 0.1% protease free BSA). Cells were incubated with coelenterazine h (Molecular Probes) at room temperature for 4 hours before testing.
To measure mGluR5 antagonist activity, cell suspensions containing test compound were mixed with EC80 glutamate and emission of light was recorded. Reference and test compounds were tested at several concentrations in duplicate to obtain dose response curves using the Prism GraphPad software (GraphPad Software Inc.). IC50 values were calculated from the dose response curves using the equation:
Y=Bottom+(Top−Bottom)/(1+10̂((LogEC50−X)*HillSlope)).
(Calcium assays in cells follow changes in intracellular calcium, usually with a dye or a luminescent sensor.)
As a reminder, the IC50 is the concentration needed to halve the response being measured. Take `Cc1cccc(NC(=O)c2n[nH]c3c2COc2ccccc2-3)n1` [Example 7, N-(6-Methylpyridin-2-yl)-1,4-dihydrochromeno[4,3-c]pyrazole-3-carboxamide]: the IC50 was over 10 µM. Still for that read-out and setting: under `Cc1cccc(NC(=O)c2c3c(nn2C)-c2ncccc2CCC3)n1` [Example 23, 4-Methyl-N-(6-methylpyridin-2-yl)-3,4,14-triazatricyclo[8.4.0.0̂{2,6}]tetradeca-1(14),2,5,10,12-pentaene-5-carboxamide] stands over 10 µM; under `Cc1cccc(NC(=O)c2nn(C(C)C)c3c2CCc2cccnc2-3)n1` [Example 15], over 10 µM.

Take `Cn1nc2c(c1C1CCCN(C(=O)c3ccc(F)cc3)C1)CCc1ccccc1-2` (stereo not drawn) [Example 24, (4-Fluorophenyl)(3-(2-methyl-4,5-dihydro-2H-benzo[g]indazol-3-yl)piperidin-1-yl)methanone]: the half-inhibitory concentration (IC50) was over 10 µM. Still for that read-out and setting: under `Cc1cccc(NC(=O)c2nn(C)c3c2CCc2ccncc2-3)n1` [Example 17, 1-Methyl-N-(6-methylpyridin-2-yl)-4,5-dihydro-1H-pyrazolo[4,3-h]isoquinoline-3-carboxamide] stands under 1 µM; under `Cn1nc(C(=O)N2CCOc3ccccc32)c2c1-c1ccccc1OC2` [Example 10, (2H-Benzo[b][1,4]oxazin-4(3H)-yl)(1-methyl-1,4-dihydrochromeno[4,3-c]pyrazol-3-yl)methanone], over 10 µM; under `Cn1nc(C(=O)Nc2ccc3c(c2)OCCO3)c2c1-c1ccccc1OC2` [Example 9, N-(2,3-Dihydrobenzo[b][1,4]dioxin-6-yl)-1-methyl-1,4-dihydrochromeno[4,3-c]pyrazole-3-carboxamide], over 10 µM. Still for that read-out and setting: under `Cn1nc(C(=O)Nc2cccc(Cl)c2)c2c1-c1cc(F)ccc1OC2` [Example 1, N-(3-Chlorophenyl)-8-fluoro-1-methyl-1,4-dihydrochromeno[4,3-c]pyrazole-3-carboxamide] stands under 1 µM; under `Cn1nc(C(=O)Nc2cccc(Cl)c2)c2cnc3ccccc3c21` [Example 20, N-(3-Chlorophenyl)-1-methyl-1H-pyrazolo[4,3-c]quinoline-3-carboxamide], under 1 µM. With `Cn1nc(C(=O)Nc2cccc(Cl)c2)c2c1-c1ccccc1CC2` [Example 14, N-(3-Chlorophenyl)-1-methyl-4,5-dihydro-1H-benzo[g]indazole-3-carboxamide], the IC50 was under 1 µM. On the same count and under the same terms, under `Cc1cccc(NC(=O)c2nn(C)c3c2CCc2ccc(C)nc2-3)n1` [Example 18] stands under 1 µM; under `Cn1nc(C(=O)Nc2cccc(Cl)c2)c2c1-c1ccccc1OC2(C)C` [Example 4, N-(3-Chlorophenyl)-1,4,4-trimethyl-1,4-dihydrochromeno[4,3-c]pyrazole-3-carboxamide], over 10 µM; under `Cn1nc(C(=O)Nc2cccc(Cl)c2)c2c1-c1ccccc1NC2` [Example 21, N-(3-Chlorophenyl)-1-methyl-4,5-dihydro-1H-pyrazolo[4,3-c]quinoline-3-carboxamide], under 1 µM. The same measure, in the same setting: the value for `Cn1nc(CNc2cccc(Cl)c2)c2c1-c1ccccc1OC2` [Example 12] was 1 to 10 µM. Turning to `Cn1nc(C(=O)Nc2cccc(Cl)c2)c2c1-c1cc(Cl)ccc1OC2` [Example 5, N-(3-Chlorophenyl)-8-chloro-1-methyl-1,4-dihydrochromeno[4,3-c]pyrazole-3-carboxamide], the IC50 was over 10 µM. Same read-out and setting: the value for `Cc1cccc(NC(=O)c2nn(C)c3c2COc2cc(F)ccc2-3)n1` [Example 6, 7-Fluoro-1-methyl-N-(6-methylpyridin-2-yl)-1,4-dihydrochromeno[4,3-c]pyrazole-3-carboxamide] was over 10 µM.

Consider `Cn1nc(C(=O)Nc2cc(Cl)ccn2)c2c1-c1ccccc1OC2` [Example 3, N-(4-Chloropyridin-2-yl)-1-methyl-1,4-dihydrochromeno[4,3-c]pyrazole-3-carboxamide], for which the IC50 was 1 to 10 µM. On the same count and under the same terms, under `Cn1nc2c(c1C(=O)Nc1cccc(Cl)c1)COc1ccc(F)cc1-2` [Example 2, N-(3-Chlorophenyl)-8-fluoro-2-methyl-2,4-dihydrochromeno[4,3-c]pyrazole-3-carboxamide] stands under 1 µM; under `CCn1nc(C(=O)Nc2cccc(C)n2)c2c1-c1ncccc1CC2` [Example 16, 1-Ethyl-N-(6-methylpyridin-2-yl)-4,5-dihydro-1H-pyrazolo[4,3-h]quinoline-3-carboxamide], under 1 µM. As for `Cc1cccc(NC(=O)c2nn(C)c3c2CCc2cccnc2-3)n1` [Example 13, 1-Methyl-N-(6-methylpyridin-2-yl)-4,5-dihydro-1H-pyrazolo[4,3-h]quinoline-3-carboxamide], the IC50 is under 1 µM. On to `CC(=O)N1Cc2c(C(=O)Nc3cccc(Cl)c3)nn(C)c2-c2ccccc21` [Example 19], for which the IC50 was under 1 µM. Still for that read-out and setting: the value for `Cc1cccc(NC(=O)c2nn(C)c3c2CCCc2cccnc2-3)n1` [Example 22, 3-Methyl-N-(6-methylpyridin-2-yl)-3,4,14-triazatricyclo[8.4.0.0̂{2,6}]tetradeca-1(14),2(6),4,10,12-pentaene-5-carboxamide] was under 1 µM; that for `CCN(Cc1nn(C)c2c1COc1ccccc1-2)C(=O)c1ccc(Br)o1` [Example 11, 5-Bromo-N-ethyl-N-((1-methyl-1,4-dihydrochromeno[4,3-c]pyrazol-3-yl)methyl)furan-2-carboxamide] was over 10 µM.

Staying with this experiment, now noted: Table 3; antagonist activity against EC80 glutamate, inducible CHO cell line expressing human mGlu5 and Aequorin; read-out: IC50 (uM) Ca^++ flux.
With `COc1cccc(NC(=O)c2nn(C)c3c2COc2ccccc2-3)c1` [N-(3-methoxyphenyl)-1-methyl-1,4-dihydrochromeno[4,3-c]pyrazole-3-carboxamide], the concentration for half-maximal inhibition (IC50) was over 10 µM.

In the case of `COc1ccc(NC(=O)c2n[nH]c3c2COc2ccccc2-3)cc1` [N-(4-methoxyphenyl)-1,4-dihydrochromeno[4,3-c]pyrazole-3-carboxamide], the IC50 is over 10 µM. Turning to `COc1ccc(Cl)cc1NC(=O)c1nn(C)c2c1COc1ccccc1-2` [N-(5-chloro-2-methoxyphenyl)-1-methyl-1,4-dihydrochromeno[4,3-c]pyrazole-3-carboxamide], the IC50 is 1 to 10 µM. The same measure, in the same setting: the value for `COc1cccc(NC(=O)c2n[nH]c3c2COc2ccccc2-3)c1` [N-(3-methoxyphenyl)-1,4-dihydrochromeno[4,3-c]pyrazole-3-carboxamide] was over 10 µM.

`Cn1nc(C(=O)NCc2cccc(Cl)c2)c2c1-c1ccccc1OC2` [N-(3-chlorobenzyl)-1-methyl-1,4-dihydrochromeno[4,3-c]pyrazole-3-carboxamide]: the IC50 is over 10 µM.

In the case of `Cn1nc(C(=O)Nc2ccc(Cl)cc2)c2c1-c1ccccc1OC2` [N-(4-chlorophenyl)-1-methyl-1,4-dihydrochromeno[4,3-c]pyrazole-3-carboxamide], the IC50 is over 10 µM.

On to `CN(C(=O)c1nn(C)c2c1COc1ccccc1-2)c1cccc(Cl)c1` [N-(3-chlorophenyl)-N,1-dimethyl-1,4-dihydrochromeno[4,3-c]pyrazole-3-carboxamide], for which the half-inhibitory concentration (IC50) is over 10 µM. The same measure, in the same setting: under `CN(C(=O)c1noc2c1COc1ccccc1-2)c1cccc(Cl)c1` [N-(3-chlorophenyl)-N-methyl-4H-chromeno[3,4-d]isoxazole-3-carboxamide] stands over 10 µM; under `Cn1nc(C(=O)Nc2cccc(Cl)c2)c2c1-c1ccsc1CC2` [N-(3-chlorophenyl)-1-methyl-4,5-dihydro-1H-thieno[2,3-g]indazole-3-carboxamide], over 10 µM. Still for that read-out and setting: the value for `Cn1nc(C(=O)Nc2ccc(F)cc2)c2c1-c1ccccc1OC2` [N-(4-fluorophenyl)-1-methyl-1,4-dihydrochromeno[4,3-c]pyrazole-3-carboxamide] was over 10 µM; that for `Cc1ccc2c(c1)-c1c(c(C(=O)Nc3cccc(Cl)c3)nn1C)CS2` [N-(3-chlorophenyl)-1,8-dimethyl-1,4-dihydrothiochromeno[4,3-c]pyrazole-3-carboxamide] was under 1 µM; that for `O=C(Nc1ccc(Cl)cc1)c1n[nH]c2c1CCc1ccccc1-2` [N-(4-chlorophenyl)-4,5-dihydro-1H-benzo[g]indazole-3-carboxamide] was over 10 µM. The same measure, in the same setting: the value for `Cn1nc(C(=O)Nc2cccc(Cl)c2)c2c1-c1ccccc1SC2` [N-(3-chlorophenyl)-1-methyl-1,4-dihydrothiochromeno[4,3-c]pyrazole-3-carboxamide] was under 1 µM. On to `O=C(Nc1cccnc1)c1n[nH]c2c1COc1ccccc1-2` [N-(pyridin-3-yl)-1,4-dihydrochromeno[4,3-c]pyrazole-3-carboxamide], for which the IC50 is over 10 µM. Still for that read-out and setting: the value for `Cn1nc(C(=O)Nc2ccccc2Cl)c2c1-c1ccccc1OC2` [N-(2-chlorophenyl)-1-methyl-1,4-dihydrochromeno[4,3-c]pyrazole-3-carboxamide] was 1 to 10 µM; that for `Cn1nc(C(=O)Nc2ccc(Cl)cn2)c2c1-c1ccccc1OC2` [N-(5-chloropyridin-2-yl)-1-methyl-1,4-dihydrochromeno[4,3-c]pyrazole-3-carboxamide] was under 1 µM.

The values are drawn from patent US20110263588A1, “TRICYCLIC COMPOUNDS AS GLUTAMATE RECEPTOR MODULATORS” (GLAXO GROUP LIMITED, priority 2008, published 2011).
